# In patent US20190369111A1, “MOLECULAR KINETICS EVALUATION METHOD AND SCREENING METHOD” (Tokyo University of Science Foundation, priority 2016, published 2019):
# Target: endogenous wild-type p53 protein (Homo sapiens, UniProt P04637)
# Assay: Degradation of endogenous wild-type p53 protein in HCT116 cells, Western blot analysis
# Type: cell-based
# Parameters: an endogenous wild-type p53 protein and MDM2 protein in HCT116 cells (human large intestine cancer cells); endogenous in cells; host or cells: HCT116 cells
# Conditions: 48 hours after addition
# Method: HCT116 cells were seeded in a 24-well plate at a cell density of 8×10^4 cells/well, and then cultured under conditions of 37° C. and 5 vol % CO2 for 16 hours.
# After 16 hours from cell seeding, TIBC-CANDDY_MLN or TIBC was added to HCT116 cells as follows. As a medium, a serum-free medium (37° C.) in which 1 mass % L-glutamine solution (Sigma-Aldrich) was added to D-MEM (high D-glucose, phenol red, sodium pyruvate (Wako Pure Chemical Industries, Ltd.)) was used. It is noted that the L-glutamine solution was added immediately before use. A DMSO solution containing TIBC-CANDDY_MLN or TIBC was mixed with the medium so that the concentration of DMSO was 1 vol %, and added to each well at 500 μL/well, and cultured under conditions of 37° C. and 5 vol % CO2. As a control, DMSO was used.
# The medium was removed 48 hours after addition of TIBC-CANDDY_MLN or TIBC, and then PBS was added to wash the cells. […]
# After electrophoresis, proteins were transferred to a PVDF membrane (Immobion™-P, Millipore) under conditions of 100 V and 2 hours using a tank-type blotting device and a transfer buffer (25 mM Tris-HCl, 195 mM glycine, 0.01% SDS, 15% methanol). […] Subsequently, the membrane was treated with a chemiluminescence reagent Immobilon™ Western (Millipore), and then chemiluminescence was detected using a lumino image analyzer LAS-3000 (FUJIFILM Corporation).
# Sequence of endogenous wild-type p53 protein (P04637 whole entry): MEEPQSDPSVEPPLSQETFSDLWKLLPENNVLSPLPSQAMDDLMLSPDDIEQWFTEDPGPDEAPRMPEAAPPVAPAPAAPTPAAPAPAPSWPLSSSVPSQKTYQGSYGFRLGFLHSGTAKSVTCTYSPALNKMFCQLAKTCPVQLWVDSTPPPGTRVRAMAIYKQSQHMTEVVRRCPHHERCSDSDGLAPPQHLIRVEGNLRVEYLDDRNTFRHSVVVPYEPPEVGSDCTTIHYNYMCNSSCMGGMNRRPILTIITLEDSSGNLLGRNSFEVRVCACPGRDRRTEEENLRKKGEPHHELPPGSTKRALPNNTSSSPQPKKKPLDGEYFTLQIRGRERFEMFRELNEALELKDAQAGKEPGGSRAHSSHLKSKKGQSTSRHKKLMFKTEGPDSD
compound,measurement,value
CC(C)C[C@H](NC(=O)CNC(=O)c1cc(Cl)ccc1Cl)C(=O)NCCCCCCC(=O)Nc1ccc(C(=O)/C=C/c2ccc(I)cc2)cc1 [TIBC-CANDDY_MLN],amount of endogenous wild-type p53 protein,reduced
